In patent publication US20240415851A1, “REMODILINS TO PREVENT OR TREAT CANCER METASTASIS, GLAUCOMA, AND HYPOXIA” (The University of Chicago, priority 2019, published 2024):
Entries after “also recorded” stand apart in the source; their conditions may differ. Where two headings read alike, the source gives them in different places.

What was measured:
[1] = Tissue concentrations after 14 d BID dosing (IP or PO); format: in vivo; details: for concentration at 14 days: liver, lung, intraperitoneal
Method: Mean+SEM shown; n=3/condition. Dotted lines show concentration corresponding to 10 μM.
(§1) PK was re-evaluated after 14 days of intraperitoneal (IP) or oral BID dosing. […] Plasma levels after single or 15 consecutive once-daily IP 10 mg/kg doses of remodilin 39 were examined (FIG. 8). The plasma concentration of 10 μM remodilin 39 corresponds to 5314 ng/mL.
(§2) In the experiments corresponding to FIG. 7, remodilin 83 was dissolved in 20% Solutol in PBS.

HIF1α [2] = assay: Hypoxia-induced HIF1α accumulation in HEK293 cells; format: cell-based; details: 6 hrs steady hypoxia (1% oxygen); 3 μM or 10 µM
Description: (§3) FIG. 12A-12B Remodilins inhibit accumulation of hypoxia-inducible factor-1 alpha (HIF1α) protein. FIG. 12A Effect of remodilin 83 on TGFβ-induced phosphorylation of AKT and ERK1/2 and TGFβ-induced HIF1α accumulation in human fibroblasts. FIG. 12B Both remodilins 39 and 83 inhibited HIF1α accumulation in HEK293 cells exposed to 6 hrs of hypoxia (1% 02).
(§4) The influence of remodilin 83 on HIF-1α accumulation in TGFβ-treated fibroblasts was examined. […] Similarly, both remodilins 39 and 83 inhibited HIF1α accumulation in HEK293 cells exposed to 6 hrs of hypoxia (1% O2; FIG. 12B). […] N—normoxia; H—hypoxia.

ERK1/2 = assay: TGFβ-induced ERK1/2 phosphorylation in fibroblasts; format: cell-based; details: human fibroblasts
Description: as §3, §4

[3] = In vivo PK and oral bioavailability, single dose; details: mouse, plasma, wild-type mice, 10 mg/kg single dose
Method: (§5) The in vivo bioavailability, plasma half-life, Cmax, and area under the curve (AUC) were determined after administration of single 10 mg/kg doses of remodilins 39 and 83 to mice (Table 1). Selected tissue concentrations of remodilins 39 and 83 after single oral doses of 10 or 50 mg/kg (FIG. 6). The PK properties of these remodilins differ substantially.

[4] = Tissue and plasma concentrations after single oral doses; format: in vivo; details: mice
Method: FIG. 6 Tissue and plasma remodilin concentrations after single oral doses (filled circles 50 mg/kg; open circles-10 mg/kg). […] The greater oral bioavailability, longer half-life, and inter-tissue variation of remodilin 83 concentration are readily evident. Mean+SEM shown; n=3/condition.
as §5, §1

HIF1α [5] = assay: TGFβ-induced HIF1α accumulation in fibroblasts; format: cell-based, human; details: 48 hrs TGFβ treatment
Description: as §3, §4

[6] = system: MDA-MB-231-derived BM1 cells; assay: 10% FBS-directed invasion through Matrigel-coated transwell membrane; format: cell-based, human; details: dose-dependent; n=3/condition
Description: FIG. 4 Remodilins 39 and 83 inhibited 10% FBS-directed invasion migration of MDA-MB-231-derived BM1 cells through a Matrigel-coated transwell mem-brane, in a dose-dependent fashion. Mean+SEM shown; n=3/condition. **P<0.01; ***P<0.001; ****P<0.0001.
(§6) Remodilins 39 and 83 each slowed the invasion of triple negative MDA-MB-231 human breast cancer cells from spheroids into a surrounding collagen gel (FIG. 3), and also slowed the serum-directed invasion MDA-MB-231-derived BM1 cells through Matrigel-coated transwells (FIG. 4). Remodilins 39 and 83 also slowed the migration of MDA-MB-231 cells in a scratch wound healing assay (FIG. 5).

MDA-MB-231 cells [7] = assay: Scratch wound healing migration assay; format: cell-based, human; details: dose-dependent; 1, 3, 10 uM; n=8 wells/condition
Method: Mean+SD shown; n=8 wells/condition. P<0.0001 for 1, 3, & 10 uM remodilin 39 vs DMSO (control) by 2-way ANOVA/Dunnett's.
as §6

[8] = system: human lung-derived fibroblasts; assay: TGFβ-induced myofibroblast transformation (ACTA2, FN1 protein expression); format: cell-based; details: 1 ng/mL TGFβ1; 0, 1, 3, or 10 μM remodilin for 2 d; dose-dependent
Method: FIG. 1 Remodilins inhibit myofibroblast transformation (MFT). Serum deprived human lung-derived fibroblasts were treated with 1 ng/mL TGFβ1 (or not, left lane) and 0, 1, 3, or 10 μM remodilin for 2 d. Four remodilins each inhibited smooth muscle α-actin (ACTA2) or fibronectin-1 (FN1) protein expression (markers of MFT).

AKT = assay: TGFβ-induced AKT phosphorylation in fibroblasts; format: cell-based; details: human fibroblasts
Description: as §3, §4

[9] = Lipophilicity and dissolution in vehicles; format: physicochemical
Method: as §2

HIF1α [10] = assay: Hypoxia-induced HIF1α accumulation in HEK293T cells (Western blot); format: cell-based; details: 6 hrs steady hypoxia; 3 or 10 μM
Description: FIG. 14A-14B Remodilins' effects on hypoxia-induced accumulation of HIF1α. […] FIG. 14B HIF1α was absent in cells ex-posed to 6 hrs normoxia (N).
OSA is a chronic, morbid disease affecting about 10% of the adult population, in which frequent episodes of upper airway collapse obstruct inspiratory airflow and cause IH. These episodes of IH disrupt sleep but perhaps more importantly accelerate multiple cardiometabolic abnormalities, including systemic hypertension, cardiovascular disease, stroke, and abnormal glucose metabolism. Therefore, remodilins were examined for their ability on inhibit hypoxia-induced accumulation of HIF1α, a transcription factor that mediates many of the adverse responses to IH.

Sprague Dawley rats = assay: Intermittent hypoxia (IH)-induced systemic hypertension; format: in vivo
Method: FIG. 15A-15B Remodilin's effect on hypertension and weight. […] N=2/group; DO-Day 0 (prior to IH), D11-Day 11.
Remodilins were tested for their ability to inhibit the systemic hypertension induced in rats subjected to IH in vivo.

MDA-MB-231 cells [11] = assay: Spheroid invasion into collagen gels; format: cell-based, human; details: 10 µM remodilin; 48 hrs; collagen 2 mg/mL; DMEM 0.5% FBS; vs 0.1% DMSO
Method: FIG. 3 MDA-MB-231 cells were grown into spheroids, then allowed to migrate into collagen gels in DMEM containing 0.5% FBS and remodilin (10 µM remodilin 39 [top row] or remodilin 83 [bottom row]) or diluent (0.1% DMSO) for 48 hrs (representative 48 hr images shown).
as §6

MDA-MB-231 cells [12] = assay: Alamar blue assay (growth inhibition, cytotoxicity); format: cell-based, human; details: concentrations to at least 10 uM
[13] = system: A549 lung adenocarcinoma cells; assay: Oxygen consumption rate and extracellular acidification rate; format: cell-based; details: treated at time=30 min
Method: FIG. 13A-13B Effect of remodilin 83 on oxygen consumption rate (OCR) and extracellular acidification rate (ECAR). FIG. 13A A549 cells were treated with remodilin 83 (open circles) or its vehicle (filled circles) at time=30 min, and oxygen consumption rate (OCR) was continuously measured over time. FIG. 13B A549 cells were treated with remodilin 83 (open circles) or its vehicle (filled circles) at time=30 min, and extracellular acidification rate (ECAR) was measured continuously over time. Cells were sequentially treated with oligomycin (ATP synthase inhibitor), FCCP (uncoupler) and antimycin A/rotenone (A+R) (complex III and I inhibitor).
A549 cells were treated with remodilin 83 (open circles) or its vehicle (filled circles) at time=30 min, and oxygen consumption rate (OCR) and extracellular acidification rate (ECAR) were measured continuously over time. Cells were sequentially treated with oligomycin (ATP synthase inhibitor), FCCP (uncoupler) and antimycin A/rotenone (A+R) (complex III and I inhibitor).

In the case of `CC1CN(S(=O)(=O)c2ccc(NC(=O)c3ccc(Br)c(I)c3)cc2)CCN1` (centres unmarked) [Remodilin 83, 4-Bromo-3-iodo-N-(4-((3-methylpiperazin-1-yl)sulfonyl)phenyl)benzamide], the “variation of tissue concentrations over the 12-hour dosing period, IP” value ([1]; after 14 d BID dosing, given IP) is reported as “relatively steady within each tissue”, the “variation of tissue concentrations over the 12-hour dosing period, PO” value ([1]; after 14 d BID dosing, given PO) is reported as “greater variation over time” and the Brain levels ([1]; after 14 days BID dosing) is reported as “low”. For the same molecule, the concentration at 14 days ([1]; female, Balb/c, mouse, heart, kidney, 40 mg/kg BID IP, 14 days, read-out: levels in liver, heart, lung, and kidney) was roughly 10 µM, the “mortality or gross clinical evidence of toxicity” value ([1]; mouse, in vivo) was “no mortality or gross clinical evidence of toxicity” and the concentration at 14 days ([1]; mouse, 14-day 40 mg/kg BID IP in 20% Solutol, female Balb/c mice, read-out: liver and lung concentrations) was less than 10 µM. For the same molecule, the “HIF1α accumulation in HEK293 cells exposed to hypoxia” value (HIF1α [2]) was “blunted HIF1α accumulation substantially”, the “TGFβ-induced ERK1/2 phosphorylation” value (ERK1/2) was “not TGFβ-induced ERK1/2 phosphorylation” and the bioavailability ([3]; po) was 22%. It also gave an AUC [3] of 1300 ng·h/mL, a Cmax [3] of 380 nM and a half-life [3] of 504 min. The “maintenance of tissue or plasma levels above 10 μM throughout the day” value ([4]; single oral doses) was “did not maintain tissue or plasma levels above 10 μM throughout the day”, the tissue distribution ([4]; single oral doses of 10 or 50 mg/kg (FIG. 6)) was “highly preferentially distributed to the lung” and the “TGFβ-induced HIF1α accumulation in human fibroblasts” value (HIF1α [5]) was “this response was absent”. The “10% FBS-directed invasion migration of BM1 cells through Matrigel-coated transwell membrane” value [6] was “inhibited”, the “migration of confluent MDA-MB-231 cells into circular scratch wound” value (MDA-MB-231 cells [7]) was “inhibited migration” and the “TGFβ-stimulated transformation of human lung-derived fibroblasts to myofibroblast phenotype (ACTA2 or FN1 protein expression)” value [8] was “blunt TGFβ-stimulated transformation”. The “TGFβ-induced AKT phosphorylation” value (AKT) was “inhibited TGFβ-induced AKT phosphorylation”, the “lipophilicity / lipid solubility” value [9] was “lipophilic; also recorded: highly lipid soluble” and the “dissolution in 20% Solutol or DMSO” value ([9]; 20% Solutol or DMSO) was “readily dissolved”. For the same molecule, the “HIF1α accumulation in HEK293T cells exposed to hypoxia” value (HIF1α [10]) was “inhibit the accumulation of HIF1α”, the “systemic hypertension induced by 10 days of IH (8 hrs/day)” value (Sprague Dawley rats; 20 mg/kg BID IP, N=2/group) was “blocks the systemic hypertension” and the “health as judged by clinical observation or weight gain” value (Sprague Dawley rats; D0 to D11) was “no obvious effect on health”. For the same molecule, the “blood pressure in rats unexposed to IH” value (Sprague Dawley rats; N=2/group) was “little effect on blood pressure”, the “invasion of MDA-MB-231 cells from spheroids into collagen gels” value (MDA-MB-231 cells [11]) was “inhibited invasion” and the “growth inhibition or cytotoxicity by Alamar blue assay” value (MDA-MB-231 cells [12]) was “Neither remodilin is growth-inhibitory or cytotoxic”. The “extracellular acidification rate (ECAR), marker of glycolysis” value [13] was “decreases both mitochondrial respiration and glycolysis” and the “oxygen consumption rate (OCR), mitochondrial respiration” value [13] was “decreases both mitochondrial respiration and glycolysis”.
